“Also recorded” adds a separate entry of the source. Read-outs that look alike come from different tables or passages of the source.
Experiments:
SARS-CoV-2 = assay: microbe, parasite or virus in culture; type: cell-based, SARS-CoV-2 (strain 2019-nCoV/USA_WA1/2020)
Cytotoxicity = type: cell-based
SARS-CoV 3CLpro = SARS-CoV 3CLpro (Severe acute respiratory syndrome coronavirus, UniProt P0C6X7); type: biochemical
SARS-CoV = conditions: cited from earlier work
3CLpro = conditions: read-out: reported IC50; reported value, no reference given; cited from earlier work
[1] = Severe acute respiratory syndrome coronavirus 2, 48 h

In the case of `O=C(Nc1cc(C(F)(F)F)cc(C(F)(F)F)c1)c1cccc([N+](=O)[O-])c1O` [JMX0330, N-(3,5-Bis(trifluoromethyl)phenyl)-2-hydroxy-3-nitrobenzamide], the EC50 (SARS-CoV-2; [1]) is reported as 498 nM, the EC50 (SARS-CoV-2; listed as JMX0320) is reported as “sub-micromolar” and the CC50 at 48 h (Cytotoxicity) is reported as 10200 nM.

With `CC(C)(C)OC(=O)NCCOc1ccc(Cl)cc1C(=O)NCC(=O)Nc1ccc([N+](=O)[O-])cc1Cl` [JMX0301, Tert-Butyl (2-(4-chloro-2-((2-((2-chloro-4-nitrophenyl)amino)-2-oxoethyl)carbamoyl)phenoxy)ethyl)carbamate] the “SARS-CoV-2 3CLpro EC50” value (SARS-CoV-2; Table 2, cell-based antiviral assay, SARS-CoV-2 viral replication) was “No Dose response”.

With `CC(C)[C@H](NC(=O)c1cc(Cl)ccc1O)C(=O)Nc1ccc(F)c(F)c1` [JMX0681] the EC50 (SARS-CoV-2) was 9750 nM.

For `C[C@H](NC(=O)c1cc(Cl)ccc1O)C(=O)Nc1ccc([N+](=O)[O-])cc1Cl` [JMX0674], the EC50 (SARS-CoV-2) was 9750 nM.

In the case of `CCC(C)[C@H](NC(=O)c1cc(Cl)ccc1O)C(=O)Nc1ccc([N+](=O)[O-])cc1Cl` (stereo partly drawn) [JMX0673], the EC50 (SARS-CoV-2) is reported as 1740 nM.

`O=C(Nc1cc(F)cc(C(F)(F)F)c1)c1cc(Cl)ccc1O` [JMX0312] showed an EC50 (SARS-CoV-2) of 1130 nM.

Work on `CC(C)[C@H](NC(=O)c1cc(Cl)ccc1O)C(=O)Nc1ccc(C(F)(F)F)cc1Cl` [JMX0672] yielded an EC50 (SARS-CoV-2) of 1920 nM.

Work on `CC(C)(C)NC(=O)N[C@H](C(=O)N1C[C@H]2[C@@H]([C@H]1C(=O)NC(CC1CCC1)C(=O)C(N)=O)C2(C)C)C(C)(C)C` (stereo partly drawn) [Boceprevir, boceprevir, reference compound] yielded an EC50 (SARS-CoV-2; Severe acute respiratory syndrome coronavirus 2, read-out: SARS-CoV-2 3CLpro EC50, Table 2, cell-based antiviral assay, SARS-CoV-2 viral replication) of 15600 nM.

`CC(C)C[C@H](NC(=O)c1cc(Cl)ccc1O)C(=O)Nc1ccc([N+](=O)[O-])cc1Cl` [JMX0671] gave an EC50 (SARS-CoV-2) of 1560 nM.

For `O=C(Nc1ccc(C(F)(F)F)cc1Cl)c1cccc([N+](=O)[O-])c1O` [JMX0310, N-(2-Chloro-4-(trifluoromethyl)phenyl)-2-hydroxy-3-nitrobenzamide], the EC50 (SARS-CoV-2; [1]) was 2410 nM and the CC50 at 48 h (Cytotoxicity) was 10100 nM.

For `O=C(Nc1ccc([N+](=O)[O-])cc1Cl)c1cc(Cl)ccc1O` [niclosamide], the “Inhibitory activity against SARS-CoV 3CLpro” value (SARS-CoV 3CLpro) is given as “does not inhibit; also recorded: no obvious inhibitory activity”, the “Concentration suppressing the cytopathic effect (CPE) of SARS-CoV” value (SARS-CoV) is given as 1 µM and the EC50 (SARS-CoV; read-out: EC50 of SARS-CoV replication) is given as under 100 nM.

Molecule `CC(C)[C@H](NC(=O)c1cc(Cl)ccc1O)C(=O)Nc1cc(C(F)(F)F)cc(C(F)(F)F)c1` [JMX0679] has an EC50 (SARS-CoV-2) of 2510 nM.

For `O=C(Nc1ccc(F)c(F)c1)c1cc(Cl)ccc1O` [JMX0321], the EC50 (SARS-CoV-2) was 1190 nM.

In the case of `O=C(Nc1cc(F)cc(C(F)(F)F)c1)c1cccc([N+](=O)[O-])c1O` [JMX0317, N-(3-Fluoro-5-(trifluoromethyl)phenyl)-2-hydroxy-3-nitrobenzamide], the EC50 (SARS-CoV-2; [1]) is reported as 4030 nM and the CC50 at 48 h (Cytotoxicity) is reported as 11700 nM.

In the case of `CC(C)[C@H](NC(=O)c1cc(Cl)ccc1O)C(=O)Nc1cc(F)cc(C(F)(F)F)c1` [JMX0680], the EC50 (SARS-CoV-2) is reported as 4570 nM.

`O=C(NC(Cc1ccccc1)C(=O)Nc1ccc([N+](=O)[O-])cc1Cl)c1cc(Cl)ccc1O` (stereo not drawn) [JMX0285] gave an EC50 (SARS-CoV-2) of 3030 nM.

`Cl.NCCOc1ccc(Cl)cc1C(=O)NCC(=O)Nc1ccc([N+](=O)[O-])cc1Cl` [JMX0286, 2-(2-Aminoethoxy)-5-chloro-N-(2-((2-chloro-4-nitrophenyl)amino)-2-oxoethyl)benzamide hydrochloride] showed an EC50 (SARS-CoV-2; [1]) of 2250 nM and a CC50 at 48 h (Cytotoxicity) of 3780 nM.

`CC(C)[C@H](NC(=O)c1cc(Cl)ccc1O)C(=O)Nc1ccc([N+](=O)[O-])cc1Cl` [JMX0281] showed an EC50 (SARS-CoV-2) of 2080 nM.

In the case of `O=C(Nc1ccc([N+](=O)[O-])cc1Cl)c1cccc([N+](=O)[O-])c1O` [JMX0207], the EC50 (SARS-CoV-2) is reported as 1220 nM.

In the case of `CC(C)(C)NC(=O)[C@@H](c1cccnc1)N(C(=O)c1ccco1)c1ccc(C(C)(C)C)cc1` [ML-188], the IC50 (3CLpro) is listed as about 2000 nM.
